Laboratory results reported in PubChem BioAssay AID248 (DTP/NCI, 2004).
Several values for one entry are separate records, joined by “and”; a condition that tells them apart may be missing. Equal entries are not always repeated. Toxic doses and inconclusive results are not listed. Cut-off read from the data, not from the text of the source: active = T/C of 150% or more; inactive = T/C below 125%.

System: L1210 leukemia ip in BDF1 mice, survival T/C
Test: NCI In Vivo Anticancer Drug Screen. Data for tumor model L1210 Leukemia (intraperitoneal) in B6D2F1 (BDF1) mice
Conditions: endpoint: mean survival time, higher = longer survival
In short: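 Transplanted-tumor mice were given test agent; controls received vehicle only. Survival readings from the two groups were divided (treated over control).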

[1] = dose: 100.0 mg/kg/injection, schedule: Q01DX001 (ip), vehicle: carboxymethylcellulose (CMC)
[2] = dose: 100.0 mg/kg/injection, schedule: Q01DX009 (ip), vehicle: carboxymethylcellulose (CMC)
[3] = dose: 100.0 mg/kg/injection, schedule: Q04DX002 (ip), vehicle: carboxymethylcellulose (CMC)
[4] = dose: 100.0 mg/kg/injection, schedule: Q04DX003 (ip), vehicle: carboxymethylcellulose (CMC)
[5] = dose: 200.0 mg/kg/injection, schedule: Q01DX001 (ip), vehicle: carboxymethylcellulose (CMC)
[6] = dose: 200.0 mg/kg/injection, schedule: Q01DX009 (ip), vehicle: carboxymethylcellulose (CMC)
[7] = dose: 200.0 mg/kg/injection, schedule: Q04DX002 (ip), vehicle: carboxymethylcellulose (CMC)
[8] = dose: 200.0 mg/kg/injection, schedule: Q04DX003 (ip), vehicle: carboxymethylcellulose (CMC)
[9] = dose: 400.0 mg/kg/injection, schedule: Q01DX001 (ip), vehicle: carboxymethylcellulose (CMC)
[10] = dose: 400.0 mg/kg/injection, schedule: Q01DX009 (ip), vehicle: carboxymethylcellulose (CMC)
[11] = dose: 400.0 mg/kg/injection, schedule: Q04DX002 (ip), vehicle: carboxymethylcellulose (CMC)
[12] = dose: 400.0 mg/kg/injection, schedule: Q04DX003 (ip), vehicle: carboxymethylcellulose (CMC)
[13] = dose: 100.0 mg/kg/injection, schedule: Q04DX003 (ip), vehicle: saline with Tween-80
[14] = dose: 200.0 mg/kg/injection, schedule: Q04DX003 (ip), vehicle: saline with Tween-80
[15] = dose: 100.0 mg/kg/injection, schedule: Q04DX002 (ip), vehicle: Klucel (hydroxypropylcellulose) (HPC)
[16] = dose: 200.0 mg/kg/injection, schedule: Q04DX002 (ip), vehicle: Klucel (hydroxypropylcellulose) (HPC)
[17] = dose: 400.0 mg/kg/injection, schedule: Q04DX002 (ip), vehicle: Klucel (hydroxypropylcellulose) (HPC)
[18] = dose: 100.0 mg/kg/injection, schedule: Q01DX001 (ip), vehicle: saline
[19] = dose: 200.0 mg/kg/injection, schedule: Q01DX001 (ip), vehicle: saline
[20] = dose: 400.0 mg/kg/injection, schedule: Q01DX001 (ip), vehicle: saline
[21] = dose: 50.0 mg/kg/injection, schedule: Q01DX001 (ip), vehicle: carboxymethylcellulose (CMC)
[22] = dose: 100.0 mg/kg/injection, schedule: Q01DX009 (ip), vehicle: Klucel (hydroxypropylcellulose) (HPC)
[23] = dose: 200.0 mg/kg/injection, schedule: Q01DX009 (ip), vehicle: Klucel (hydroxypropylcellulose) (HPC)
[24] = dose: 400.0 mg/kg/injection, schedule: Q01DX009 (ip), vehicle: Klucel (hydroxypropylcellulose) (HPC)
[25] = dose: 100.0 mg/kg/injection, schedule: Q01DX001 (ip), vehicle: saline with Tween-80
[26] = dose: 200.0 mg/kg/injection, schedule: Q01DX001 (ip), vehicle: saline with Tween-80
[27] = dose: 400.0 mg/kg/injection, schedule: Q01DX001 (ip), vehicle: saline with Tween-80
[28] = dose: 100.0 mg/kg/injection, schedule: Q04DX003 (ip), vehicle: Klucel (hydroxypropylcellulose) (HPC)
[29] = dose: 200.0 mg/kg/injection, schedule: Q04DX003 (ip), vehicle: Klucel (hydroxypropylcellulose) (HPC)
[30] = dose: 400.0 mg/kg/injection, schedule: Q04DX003 (ip), vehicle: Klucel (hydroxypropylcellulose) (HPC)
[31] = dose: 100.0 mg/kg/injection, schedule: Q04DX003 (ip), vehicle: saline

Measured: T/C

CCOC(=O)CCCl
inactive: dose: 75.0 mg/kg/injection, schedule: Q01DX009 (ip), vehicle: Klucel (hydroxypropylcellulose) (HPC) 94 % of control | dose: 75.0 mg/kg/injection, schedule: Q04DX003 (ip), vehicle: saline 117 % of control | dose: 150.0 mg/kg/injection, schedule: Q01DX009 (ip), vehicle: Klucel (hydroxypropylcellulose) (HPC) 96 % of control | dose: 300.0 mg/kg/injection, schedule: Q01DX009 (ip), vehicle: Klucel (hydroxypropylcellulose) (HPC) 97 % of control | dose: 300.0 mg/kg/injection, schedule: Q04DX003 (ip), vehicle: saline 97 % of control

O=[N+]([O-])c1cc(S(=O)(=O)O)cc([N+](=O)[O-])c1NN(c1ccccc1)c1ccccc1
inactive: dose: 44.0 mg/kg/injection, schedule: Q04DX003 (ip), vehicle: other 100 % of control | dose: 87.0 mg/kg/injection, schedule: Q04DX003 (ip), vehicle: other 92 % of control | dose: 175.0 mg/kg/injection, schedule: Q04DX003 (ip), vehicle: other 103 % of control

O=C(O)c1ccccc1CN1CCCC(C(=O)O)C1 (stereo not drawn)
inactive: dose: 6.25 mg/kg/injection, schedule: Q01DX009 (ip), vehicle: saline with Tween-80 101 % of control | dose: 12.5 mg/kg/injection, schedule: Q01DX009 (ip), vehicle: saline with Tween-80 97 % of control | dose: 25.0 mg/kg/injection, schedule: Q01DX009 (ip), vehicle: saline with Tween-80 92 % of control

NS(=O)(=O)c1ccc(NC(=O)Nc2ccc(F)cc2)cc1
inactive: [1] 99 % of control | [2] 94 % of control and 101 % of control | [3] 92 % of control and 100 % of control | [4] 93 % of control | [5] 96 % of control | [6] 94 % of control and 100 % of control | [7] 100 % of control and 89 % of control | [8] 104 % of control | [9] 99 % of control | [10] 94 % of control and 101 % of control | [11] 100 % of control and 102 % of control | [12] 104 % of control

COc1ccc(C(=O)/C=C/c2ccccc2)cc1
inactive: dose: 100.0 mg/kg/injection, schedule: Q01DX001 (ip), vehicle: Klucel (hydroxypropylcellulose) (HPC) 102 % of control | dose: 200.0 mg/kg/injection, schedule: Q01DX001 (ip), vehicle: Klucel (hydroxypropylcellulose) (HPC) 113 % of control | dose: 400.0 mg/kg/injection, schedule: Q01DX001 (ip), vehicle: Klucel (hydroxypropylcellulose) (HPC) 100 % of control

Cc1ccc(C(=O)C2CN(C)CCC2(O)c2ccc(C)cc2)cc1 (stereo not drawn)
inactive: [13] 96 % of control | [14] 103 % of control | dose: 400.0 mg/kg/injection, schedule: Q04DX003 (ip), vehicle: saline with Tween-80 96 % of control

CN(CC#CCOc1ccc(Cl)cc1Cl)c1ccccc1
inactive: [15] 102 % of control | [16] 98 % of control | [17] 91 % of control

CCCCCCCCCCCCCCC[As](=O)(O)CCCCCCCCCCCCCCC
inactive: dose: 50.0 mg/kg/injection, schedule: Q01DX001 (ip), vehicle: saline 97 % of control | [18] 95 % of control | [19] 95 % of control | [20] 95 % of control

CCOC(=O)CC(c1ccccc1)C(C(=O)OCC)C(=O)OCC (stereo not drawn)
inactive: [18] 106 % of control | [19] 103 % of control | [20] 103 % of control

CCCCC(=O)N1CCCCC1C (stereo not drawn)
inactive: [21] 102 % of control | dose: 50.0 mg/kg/injection, schedule: Q01DX009 (ip), vehicle: carboxymethylcellulose (CMC) 94 % of control and 100 % of control | dose: 50.0 mg/kg/injection, schedule: Q04DX003 (ip), vehicle: carboxymethylcellulose (CMC) 96 % of control | [1] 101 % of control | [2] 97 % of control and 98 % of control | [3] 105 % of control | [4] 100 % of control | [5] 101 % of control | [6] 96 % of control and 97 % of control | [7] 98 % of control | [8] 105 % of control | [11] 102 % of control

O=C(Sc1ccccc1)n1nc(Cl)c2ccc([N+](=O)[O-])cc21
inactive: [18] 94 % of control | [19] 94 % of control | [20] 90 % of control

COc1ccccc1NC(=O)c1ccccc1F
inactive: [22] 95 % of control | [23] 95 % of control | [24] 101 % of control

O=C1CC(c2ccccc2)C2(c3ccccc3)OC12 (stereo not drawn)
inactive: [25] 101 % of control | [26] 94 % of control | [27] 111 % of control

Nc1ccn(CCCOc2ccccc2)c(=O)n1
inactive: [25] 97 % of control | [26] 96 % of control | [27] 100 % of control

C#CC(C)(O)CC(C)C (stereo not drawn)
inactive: [18] 100 % of control | [19] 100 % of control

O=C(Nc1cccc2ccccc12)OCC(Cl)(Cl)Cl
inactive: [2] 97 % of control and 98 % of control | [15] 108 % of control | [3] 108 % of control and 90 % of control | [4] 103 % of control | [6] 95 % of control and 90 % of control | [16] 96 % of control | [7] 95 % of control and 97 % of control | [8] 97 % of control | [10] 95 % of control and 97 % of control | [17] 108 % of control | [11] 97 % of control and 87 % of control | [12] 94 % of control

CSc1ccc(OC(=O)Nc2ccc(C)cc2[N+](=O)[O-])cc1
inactive: dose: 50.0 mg/kg/injection, schedule: Q01DX009 (ip), vehicle: Klucel (hydroxypropylcellulose) (HPC) 90 % of control | [22] 90 % of control | [28] 97 % of control | [23] 100 % of control | [29] 99 % of control | [30] 97 % of control

O=C(O)/C=C/c1cccc(Br)c1
inactive: [21] 101 % of control | [1] 97 % of control | [5] 97 % of control | [9] 101 % of control

Cc1c(C)c(O)c(Br)c(C)c1O (tested in a mixture with another compound)
inactive: [13] 89 % of control

NC(=O)C(O)c1ccccc1 (stereo not drawn)
inactive: [31] 96 % of control | dose: 200.0 mg/kg/injection, schedule: Q04DX003 (ip), vehicle: saline 94 % of control | dose: 400.0 mg/kg/injection, schedule: Q04DX003 (ip), vehicle: saline 100 % of control

Cc1ccc(NC(=O)Oc2ccc(Cl)cc2Cl)cc1NC(=O)Oc1ccc(Cl)cc1Cl
inactive: [22] 89 % of control | [23] 94 % of control | [24] 89 % of control

Cc1cccc(Nc2c(N)nc(N)nc2N)c1
inactive: dose: 25.0 mg/kg/injection, schedule: Q01DX009 (ip), vehicle: saline 105 % of control | dose: 50.0 mg/kg/injection, schedule: Q01DX009 (ip), vehicle: saline 120 % of control | [31] 104 % of control

CC1(C(N)=O)CC2C=CC1C2 (stereo not drawn)
inactive: [5] 98 % of control | [9] 95 % of control

COc1ccc(NC(=O)Oc2ccc(OC)cc2)cc1
inactive: [22] 103 % of control | [28] 97 % of control | [23] 95 % of control | [29] 89 % of control | [24] 89 % of control | [30] 91 % of control

Cc1c[n+]([O-])cc(C)c1N=Nc1ccc(N(C)C)cc1
inactive: [13] 103 % of control | [14] 96 % of control

CC1(C)CC(Cc2ccccc2)C(=O)O1 (stereo not drawn)
inactive: [28] 93 % of control | [29] 90 % of control | [30] 100 % of control

CCSC(SCC)C(OC(=O)c1ccccc1)C(OC(=O)c1ccccc1)C(COC(=O)c1ccccc1)OC(=O)c1ccccc1 (stereo not drawn)
inactive: [1] 102 % of control | [5] 102 % of control | [9] 96 % of control
